Laboratory results taken from patent US20200261440A1, “ZINC IONOPHORES AND USES THEREOF” (THE UNIVERSITY OF QUEENSLAND, priority 2017, published 2020).
Marks after values point to notes of the source that are not given here.

Columns and labels:
[1] = test system: GAS strain HKU16 (Streptococcus pyogenes strain HKU16); experiment: microbe, parasite or virus in culture; assay type: cell-based
Procedure: (§1) J. Path. Bact. […] Proc. Soc.
(§2) MIC assays were carried out in biological triplicates.
(§3) M100 Performance Standards for Antimicrobial Susceptibility Testing, 27th Edition.

[2] = test system: Vancomycin-resistant Enterococci (VRE) clinical isolate RBWH1; experiment: MIC by broth microdilution (CLSI); assay type: cell-based, Enterococcus
Procedure: as §1, §2, §3

GAS = experiment: Drop test assay, growth on THY agar; assay type: cell-based, Streptococcus pyogenes; conditions: PBT2 (1.5 μM), zinc(II) ions (400 μM)
Procedure: (§4) FIG. 1a illustrates growth of GAS, MRSA and VRE on THY agar in the presence or absence of PBT2 (1.5 μM) and zinc(II) ions (400 μM).
(§5) Bacteria were diluted from overnight cultures to get a starting OD600 of 0.01 in THY. Once the bacteria grew to an OD600 of 0.6, the culture were serially diluted in PBS and 5 μL of each dilution (undiluted, 10^−1, 10^−2, 10^−3, 10^−4, 10^−5) was plated on THY agar plates with or without zinc (400 μM) and/or PBT2 ([…]). Plates were incubated at 37° C. overnight. Drop tests were undertaken in biological triplicates.

MRSA = experiment: Drop test assay, growth on THY agar; assay type: cell-based, Staphylococcus aureus; conditions: PBT2 (1.5 μM), zinc(II) ions (400 μM)
Procedure: as §4, §5

VRE = experiment: Drop test assay, growth on THY agar; assay type: cell-based, Enterococcus; conditions: PBT2 (1.5 μM), zinc(II) ions (400 μM)
Procedure: as §4, §5

[3] = test system: Methicillin-resistant Staphylococcus aureus (MRSA) strain USA300; experiment: MIC by broth microdilution (CLSI)
[4] = test system: Klebsiella pneumoniae strain MS6771; experiment: MIC by broth microdilution (CLSI); assay type: cell-based
[5] = test system: MCR-1 E. coli strain MS8345; experiment: MIC by broth microdilution (CLSI); assay type: cell-based, Escherichia coli; conditions: for antibiotic sensitivity of resistant strain: MCR1-positive E. coli MS8345; for MIC: MCR-1 E. coli
Procedure: as §1
J Infect Dis. 1995 171:890-6). E. coli strain MS8345 is a MCR-1 resistant clinical isolate supplied by Prof. D. L. Paterson, University of Queensland Centre for Clinical Research.
(§6) (2017)]. […] MIC assays were carried out in biological triplicates.

[6] = test system: P. aeruginosa strain 253-43-C; experiment: MIC by broth microdilution (CLSI); assay type: cell-based, Pseudomonas aeruginosa
Procedure: They were obtained from Jan Bell, Australian Centre of Microbial Resistance Ecology (ACARE), University of Adelaide, Australia.
as §6

## [Zn+2] [Zinc(II) ion]
[1]; GAS HKU 16, substance alone
  MIC: 2 mM
[2]; VRE RBWH1, substance alone
  MIC: 3 mM
GAS
  antibacterial activity: neither PBT2 nor zinc(II) ions (in the form of zinc chloride) displayed antibacterial activity
MRSA
  antibacterial activity: neither PBT2 nor zinc(II) ions (in the form of zinc chloride) displayed antibacterial activity
VRE
  antibacterial activity: neither PBT2 nor zinc(II) ions (in the form of zinc chloride) displayed antibacterial activity
[3]; MRSA USA300, substance alone
  MIC: 3 mM

## polymyxin B
[1]; GAS HKU16, RA-HQ-12+zinc(II) ions (ZnSO4)
  antibiotic resensitization: resensitize
[1]; GAS HKU16, addition of sub-inhibitory PBT2+zinc(II) ions
  antibiotic sensitivity of resistant strain: became sensitive
[1]; GAS, RA-HQ-12: 3.5 μM, Zn: […]
  MIC: 4^# μg/mL
[1]; Streptococcus pyogenes HKU16, CQ: 0 μM, Zinc: 0 μM
  MIC: 64 µg/mL
[1]; Streptococcus pyogenes HKU16, CQ: 6 μM
  MIC: 32 µg/mL
[1]; Streptococcus pyogenes HKU16, CQ: 6 μM, Zinc: 80 μM
  MIC: 1 µg/mL
[1]; Streptococcus pyogenes HKU16, PBT2: 0 μM, Zinc: 0 μM
  MIC: 64 to 128 µg/mL
[1]; Streptococcus pyogenes HKU16, PBT2: 4.75 μM
  MIC: 32 µg/mL
[1]; Streptococcus pyogenes HKU16, PBT2: 4.75 μM, Zinc: […]
  MIC: 1 to 2 µg/mL
[1]; Streptococcus pyogenes HKU16, Zinc: 80 μM
  MIC: 64 µg/mL
[1]; Streptococcus pyogenes HKU16, Zinc: […] (PBT2 panel)
  MIC: 64 µg/mL
[2]; VRE RBWH1, CQ: 2.5 μM
  MIC: 64 µg/mL
[2]; VRE RBWH1, CQ: 2.5 μM, Zinc: 32 μM
  MIC: 0.5 to 1 µg/mL
[2]; VRE RBWH1, PBT2: 1.75 μM
  MIC: 64 µg/mL
[2]; VRE RBWH1, PBT2: 1.75 μM, Zinc: […]
  MIC: 0.5 µg/mL
[2]; VRE RBWH1, RA-HQ-12+zinc(II) ions (ZnSO4)
  antibiotic resensitization: resensitize
[2]; VRE RBWH1, addition of sub-inhibitory PBT2+zinc(II) ions
  antibiotic sensitivity of resistant strain: became sensitive
[2]; VRE, RA-HQ-12: 3.5 μM
  MIC: 16 µg/mL
[2]; VRE, RA-HQ-12: 3.5 μM, Zn: […]
  MIC: 4^# μg/mL
[4]; K. pneumoniae, RA-HQ-12: 16 μM, Zn: 64 μM
  MIC: 4^# μg/mL
[4]; Klebsiella pneumoniae MS6771, RA-HQ-12+zinc(II) ions (ZnSO4)
  antibiotic resensitization: resensitize
[4]; Klebsiella pneumoniae MS6771, addition of sub-inhibitory PBT2+zinc(II) ions
  antibiotic sensitivity of resistant strain: became sensitive
[4]; Klebsiella pneumoniae MS6771, combination with PBT2, no zinc
  antibiotic sensitivity of resistant strain: resulted in sensitivity
[4]; Klebsiella pneumoniae, CQ: 0 μM, Zinc: 0 μM
  MIC: 64 µg/mL
[4]; Klebsiella pneumoniae, CQ: 64 μM
  MIC: 2 µg/mL
[4]; Klebsiella pneumoniae, CQ: 64 μM, Zinc: 256 μM
  MIC: 2 µg/mL
[4]; Klebsiella pneumoniae, PBT2: 0 μM, Zinc: 0 μM
  MIC: 32 to 64 µg/mL
[4]; Klebsiella pneumoniae, Zinc: 256 μM (CQ panel)
  MIC: 32 to 64 µg/mL
[4]; Klebsiella pneumoniae, Zinc: 256 μM (PBT2 panel)
  MIC: 32 to 64 µg/mL
[5]; addition of sub-inhibitory PBT2+zinc(II) ions
  antibiotic sensitivity of resistant strain: became sensitive
[5]; combination with PBT2, no zinc
  antibiotic sensitivity of resistant strain: resulted in sensitivity
[5]; CQ: 0 μM, Zinc: 0 μM
  MIC: 8 µg/mL
[5]; CQ: 5 μM
  MIC: 2 to 4 µg/mL
[5]; CQ: 5 μM, Zinc: 25 μM
  MIC: 1 µg/mL
[5]; PBT2: 0 μM, Zinc: 0 μM
  MIC: 8 µg/mL
[5]; PBT2: 7 μM
  MIC: 1 µg/mL
[5]; PBT2: 7 μM, Zinc: 200 μM
  MIC: 0.5 µg/mL
[5]; Zinc: 25 μM
  MIC: 8 µg/mL
[5]; Zinc: 200 μM
  MIC: 8 µg/mL
[6]; PBT2
  MIC: 1 µg/mL
[6]; Untreated
  MIC: 8 µg/mL
[3]; MRSA USA300, CQ: 1 μM
  MIC: 64 µg/mL
[3]; MRSA USA300, CQ: 1 μM, Zinc: 32 μM
  MIC: 2 µg/mL
[3]; MRSA USA300, PBT2: 0 μM, Zinc: 0 μM
  MIC: 64 µg/mL
[3]; MRSA USA300, PBT2: 2 μM
  MIC: 64 µg/mL
[3]; MRSA USA300, PBT2: 2 μM, Zinc: 50 μM
  MIC: 2 µg/mL
[3]; MRSA USA 300, RA-HQ-12+zinc(II) ions (ZnSO4)
  antibiotic resensitization: resensitize
[3]; MRSA USA300, Zinc: 50 μM
  MIC: 64 µg/mL
[3]; MRSA USA300, addition of sub-inhibitory PBT2+zinc(II) ions
  antibiotic sensitivity of resistant strain: became sensitive
[3]; MRSA, RA-HQ-12: 3.5 μM, Zn: […], oxacillin with 2% NaCl
  MIC: 4^# μg/mL
[3]; MRSA, RA-HQ-12: 3.5 μM, oxacillin with 2% NaCl
  MIC: 32 µg/mL
